Assay results as given in patent publication US10456379B2, “Imidazole-based antimicrobial agents” (priority 2014, dated 2019).
Values after ≈ are worked out from the molar mass of the structure shown. Read-outs that look alike come from different tables or passages of the source.

Columns and labels:
Type in all cases: cell-based
[1] = tested on: Staphylococcus aureus MRSA (COL); experiment: Broth microdilution MIC assay, Staphylococcus aureus MRSA (COL); conditions: for Antibacterial activity Staphylococcus aureus (MRSA): MIC class score, MIC100, broth microdilution, COL strain
[2] = tested on: Streptococcus pneumoniae (Chester, ATCC49619); experiment: Broth microdilution MIC assay, Streptococcus pneumoniae; conditions: for MIC: Streptococcus pneumoniae, ATCC49619, read-out: Antibacterial activity, SP (Streptococcus pneumoniae), MIC class; for Antibacterial activity Streptococcus pneumoniae: MIC class score, MIC100, broth microdilution
[3] = tested on: vancomycin-resistant Enterococcus faecalis (ATCC51575); experiment: microbe, parasite or virus in culture; conditions: ATCC51575; vancomycin-resistant Enterococcus faecalis; read-out: Antibacterial activity, VREFs (vancomycin-resistant EFs), MIC class
[4] = tested on: Enterococcus faecalis (ATCC29212); experiment: Broth microdilution MIC assay, Enterococcus faecalis; conditions: read-out: Antibacterial activity, EFs (Enterococcus faecalis), MIC class
[5] = tested on: vancomycin-resistant Enterococcus faecium (ATCC51559); experiment: microbe, parasite or virus in culture; conditions: ATCC51559; vancomycin-resistant Enterococcus faecium; read-out: Antibacterial activity, VREFm (vancomycin-resistant EFm), MIC class
[6] = tested on: Staphylococcus epidermidis (PCI 1200, ATCC12228); experiment: Broth microdilution MIC assay, Staphylococcus epidermidis; conditions: read-out: Antibacterial activity, SE (Staphylococcus epidermidis), MIC class
[7] = tested on: Staphylococcus aureus MSSA (Newman); experiment: Broth microdilution MIC assay, Staphylococcus aureus MSSA (Newman); conditions: for MIC: Staphylococcus aureus
[8] = tested on: daptomycin-resistant Staphylococcus aureus (from MRSA COL); experiment: Broth microdilution MIC assay, daptomycin-resistant MRSA; conditions: 24 h, read-out: Antibacterial activity, MRSA strains with additional resistance, D (daptomycin), MIC class
[9] = tested on: Enterococcus faecium (AGR15, ATCCBAA-2127); experiment: Broth microdilution MIC assay, Enterococcus faecium; conditions: ATCCBAA2127, read-out: Antibacterial activity, EFm (Enterococcus faecium), MIC class
[10] = read-out: Antibacterial activity Staphylococcus aureus (MSSA)

SMILES	Antibacterial activity Staphylococcus aureus (MRSA) [1]	MIC [2]	Antibacterial activity Streptococcus pneumoniae [2]	other results
CCCc1[nH]c(-c2ccc(-c3ccccc3Cl)s2)nc1C [compound 82]	3 (MIC100 of 3-10 μg/ml)			
Cc1[nH]c(-c2cc(C)n(-c3cccc(C(F)(F)F)c3)c2C)nc1-c1ccccc1 [compound 36]	2 (MIC100 of 11-20 μg/ml)	2 to 5 µg/mL (≈ 5.06 to 12.6 µM)		
Cc1[nH]c(-c2ccc(-c3ccc(Cl)c(C(F)(F)F)c3)o2)nc1-c1ccccc1 [compound 39]		< 1 µg/mL		MIC [3]: 20 to 50 µg/mL (≈ 49.7 to 124 µM); MIC [4]: 20 to 50 µg/mL (≈ 49.7 to 124 µM); MIC [5]: 20 to 50 µg/mL (≈ 49.7 to 124 µM)
CCCc1nc(-c2ccc(-c3c(C)cccc3C)o2)[nH]c1C [compound 103]	3 (MIC100 of 3-10 μg/ml)			
Cc1[nH]c(-c2ccc(-c3ccc(OC(F)(F)F)c(Cl)c3)o2)nc1-c1ccc(Cl)cc1 [compound 50]		2 to 5 µg/mL (≈ 4.41 to 11 µM)	3 (MIC100 of 2-5 μg/ml)	MIC ([1]; Staphylococcus aureus, MRSA, read-out: Antibacterial activity, MRSA (Staphylococcus aureus MRSA), MIC class): 11 to 20 µg/mL (≈ 24.3 to 44.1 µM)
Fc1ccc(-c2ccc(-c3nc4ccccc4[nH]3)o2)c(F)c1 [compound 122]	in- active		in- active	
Cc1[nH]c(-c2ccn(-c3ccccc3C(F)(F)F)c2)nc1-c1ccccc1 [compound 33]		6 to 10 µg/mL (≈ 16.3 to 27.2 µM)		MIC [6]: 11 to 20 µg/mL (≈ 29.9 to 54.4 µM)
Cc1nc(-c2ccc(-c3ccccc3O)o2)[nH]c1-c1ccccc1 [compound 149]				MIC [7, 10]: 11 to 20 µg/mL (≈ 34.8 to 63.2 µM)
CCCc1nc(-c2ccc(-c3ccc(C(F)(F)F)cc3)o2)[nH]c1C [compound 104]	3 (MIC100 of 3-10 μg/ml)			
FC(F)(F)c1ccccc1-c1ccc(-c2ncc(-c3ccccc3)[nH]2)o1 [compound 75]			3 (MIC100 of 2-5 μg/ml)	MIC [7, 10]: 11 to 20 µg/mL (≈ 31 to 56.4 µM)
FC(F)(F)c1ccccc1-c1ccc(-c2nc(Cl)c(-c3ccccc3)[nH]2)o1 [compound 65]		< 1 µg/mL		Antibacterial activity Staphylococcus aureus (MSSA) ([7]; MIC class score, MIC100, broth microdilution, Newman strain): 2 (MIC100 of 11-20 μg/ml); MIC ([7]; read-out: Antibacterial activity, MSSA (Staphylococcus aureus MSSA), MIC class): 11 to 20 µg/mL (≈ 28.3 to 51.4 µM)
Cc1nc(-c2ccc(-c3ccc(F)cc3F)o2)[nH]c1-c1ccc(O)cc1 [compound 80]	2 (MIC100 of 11-20 μg/ml)			
CCCc1nc(-c2ccc(-c3ccccc3N(C)C)o2)[nH]c1C [compound 98]	3 (MIC100 of 3-10 μg/ml)			
Cc1[nH]c(-c2ccc(-c3cccc(Cl)c3Cl)o2)nc1-c1ccccc1 [compound 2]			3 (MIC100 of 2-5 μg/ml)	MIC [3]: 20 to 50 µg/mL (≈ 54.2 to 135 µM); MIC [8]: 3 to 10 µg/mL (≈ 8.12 to 27.1 µM)
Cc1nc(-c2ccc(-c3ccccc3OC(F)(F)F)o2)[nH]c1-c1ccc(Br)cc1 [compound 29]	2 (MIC100 of 11-20 μg/ml)	2 to 5 µg/mL (≈ 4.32 to 10.8 µM)	3 (MIC100 of 2-5 μg/ml)	
Cc1nc(-c2ccc(-c3ccc(O)cc3)o2)[nH]c1-c1ccccc1 [compound 150]			2 (MIC100 of 6-10 μg/ml)	MIC [7, 10]: 11 to 20 µg/mL (≈ 34.8 to 63.2 µM)
CCCc1nc(-c2csc(-c3ccccc3C(F)(F)F)c2)[nH]c1C [Compound 113]	3 (MIC100 of 3-10 μg/ml)			
Cc1[nH]c(-c2ccc(-c3ccccc3C(F)(F)F)o2)nc1-c1ccccc1 [compound 17]		2 to 5 µg/mL (≈ 5.43 to 13.6 µM)	3 (MIC100 of 2-5 μg/ml)	MIC [9]: 20 to 50 µg/mL (≈ 54.3 to 136 µM)
Cc1nc(-c2ccc(-c3ccc(Cl)c(OC(F)(F)F)c3)o2)[nH]c1-c1ccc(F)cc1 [compound 43]	2 (MIC100 of 11-20 μg/ml)			MIC [4]: 20 to 50 µg/mL (≈ 45.8 to 114 µM)
Cc1nc(-c2ccc(-c3cccc(O)c3)o2)[nH]c1-c1ccccc1 [compound 145]			2 (MIC100 of 6-10 μg/ml)	MIC [7, 10]: 11 to 20 µg/mL (≈ 34.8 to 63.2 µM)
Cc1[nH]c(-c2coc(-c3ccccc3C(F)(F)F)c2)nc1-c1ccccc1 [compound 72]		6 to 10 µg/mL (≈ 16.3 to 27.1 µM)		
Cc1[nH]c(-c2cc(C)n(-c3ccc(C(C)C)cc3)c2C)nc1-c1ccccc1 [compound 58]		< 1 µg/mL		
Cc1[nH]c(-c2ccc(-c3cccc(Br)c3)s2)nc1-c1ccccc1 [compound 13]		2 to 5 µg/mL (≈ 5.06 to 12.6 µM)		
CCCc1[nH]c(-c2ccc(-c3ccc(Cl)cc3Cl)o2)nc1C [compound 109]	2 (MIC100 of 11-20 μg/ml)			
